According to ChEMBL document CHEMBL1132125, “Synthesis of phosphonate 3-phthalidyl esters as prodrugs for potential intracellular delivery of phosphonates” (Bioorg Med Chem Lett, 1999):

How the values were obtained:
Rattus norvegicus = species: Rattus norvegicus; assay: Intracellular concentration of 1-naphthalenemethylphosphonate (NMPA) in isolated rat hepatocytes was measured after 15 min of incubation.; type: functional; details: Hepatocyte
[1] = Half-life period of compound was measured in rat plasma.; type: ADME

| half-life [1] | SMILES | Concentration (Rattus norvegicus) |
| --- | --- | --- |
|  | COc1cc(OC)c2c(c1)C(OP(=O)(Cc1cccc3ccccc13)OC1OC(=O)c3c(OC)cc(OC)cc31)OC2=O (configuration not stated) | 359 µM |
|  | COc1cccc2c1C(OP(=O)(Cc1cccc3ccccc13)OC1OC(=O)c3cccc(OC)c31)OC2=O (configuration not stated) | 0 µM |
| 10 min | Cc1ccc2c(c1-c1ccccc1)C(=O)OC2OP(=O)(Cc1cccc2ccccc12)OC1OC(=O)c2c1ccc(C)c2-c1ccccc1 (configuration not stated) | 20 µM |
| 2 min | COc1cccc2c1C(=O)OC2OP(=O)(Cc1cccc2ccccc12)OC1OC(=O)c2c(OC)cccc21 (configuration not stated) | 336 µM |
| 5 min | COc1cc2c(c(OC)c1OC)C(=O)OC2OP(=O)(Cc1cccc2ccccc12)OC1OC(=O)c2c1cc(OC)c(OC)c2OC (configuration not stated) | 246 µM |
| 2 min | CCOc1cccc2c1C(=O)OC2OP(=O)(Cc1cccc2ccccc12)OC1OC(=O)c2c(OCC)cccc21 (configuration not stated) | 208 µM |
|  | O=P(O)(O)Cc1cccc2ccccc12 | 0 µM |
| 0.1 min | O=C1OC(OP(=O)(Cc2cccc3ccccc23)OC2OC(=O)c3c(Cl)ccc(Cl)c32)c2c(Cl)ccc(Cl)c21 (configuration not stated) | 78 µM |
| 0.5 min | COc1ccc2c(c1)C(OP(=O)(Cc1cccc3ccccc13)OC1OC(=O)c3ccc(OC)cc31)OC2=O (configuration not stated) | 428 µM |
| 0.5 min | O=C1OC(OP(=O)(Cc2cccc3ccccc23)OC2OC(=O)c3ccccc32)c2ccccc21 (configuration not stated) | 500 µM |
